Assay [1] deals with T1, hMC-5R (Homo sapiens, UniProt P33032).
T1 construct: expressed in transfected cells; host or cells: Chinese hamster ovary (CHO) cells
The experiment in a line: Competitive binding assay, [125I]-NDP-α-MSH, CHO cell membranes. The settings on record: 200 pM [125I]-NDP-α-MSH, read-out: Binding Assay IC50 hMC-5R. Here is the method:
(§1) The peptides of the present invention were evaluated for agonist activity in receptor binding assay. Crude membrane preparations were obtained from Chinese hamster ovary cells expressing human MC3, MC4, and MC5 receptors. Cells were rinsed with phosphate-buffered saline (PBS) lacking CaCl2 or MgCl2 (Life Technologies, Gaithersburg, Md., USA), and then detached with enzyme-free dissociation media (Specialty Media, Lavellette, N.J., USA). Cells were pelleted at 2800×g for 10 minutes and resuspended in membrane buffer (20 mM Tris, pH 7.2, 5 mM ethylenediaminetetraacetic acid) with 5 μg/ml leupeptin, 5 μg/ml aprotinin, 40 μg/ml bacitracin, and 25 μg/ml pefabloc (Boehringer Mannheim). The cells were […] with 10 strokes by using a motor-driven Teflon-coated pestle in a glass homogenizer at low speed. The resulting cell suspension was centrifuged at 4100×g, 4° C., for 20 minutes. The pellet was resuspended in fresh membrane buffer with protease inhibitors, aliquoted, snap-frozen in liquid nitrogen, and stored at −80° C. The resulting crude membranes were titrated to determine the optimal level necessary for performing binding studies.
(§2) Binding reactions (total volume=250 μl) contained MBB (50 mM Tris, pH 7.2, 2 mM CaCl2, 1 mM MgCl2), 0.1% bovine serum albumin, crude membranes prepared from cells expressing human MC3, MC4, or MC5 receptor, 200 pM of [125I]-NDP-α-MSH (Amersham, Arlington Heighs, Ill., USA), and increasing concentrations of unlabeled test compounds dissolved in dimethylsulfoxide (final concentration=2%). Reactions were incubated for 1 hour without shaking and then filtered through 96-well filter plates (Packard), presoaked in 1% polyethyleneimine. Filters were washed 3 times with TNE buffer (50 mM Tris, pH 7.4, 5 mM ethylene-diaminetetraacetic acid, 150 mM NaCl), dried and counted by using Microscint-20 in a Topcount scintillation counter (Packard). Nonspecific binding was determined in the presence of 2 μm of unlabeled NDP-α-MSH (Peninsula Laboratories). Active peptides were evaluated in three independent experiments.

The target in assay [2] is T2, hMC-3R (Homo sapiens, UniProt P41968).
T2 construct: expressed in transfected cells; host or cells: Chinese hamster ovary (CHO) cells
T2 sequence (P41968 whole entry): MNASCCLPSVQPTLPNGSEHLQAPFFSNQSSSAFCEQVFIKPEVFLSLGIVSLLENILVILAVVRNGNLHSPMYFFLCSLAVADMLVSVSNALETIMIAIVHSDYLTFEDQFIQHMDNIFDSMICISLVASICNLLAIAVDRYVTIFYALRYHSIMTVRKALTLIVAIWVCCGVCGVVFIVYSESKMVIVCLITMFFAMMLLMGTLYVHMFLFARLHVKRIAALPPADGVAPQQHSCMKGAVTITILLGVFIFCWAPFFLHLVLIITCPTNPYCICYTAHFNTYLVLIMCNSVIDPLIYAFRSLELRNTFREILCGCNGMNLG
The assay is described as above. The conditions noted are these: 200 pM [125I]-NDP-α-MSH, read-out: Binding Assay IC50 hMC-3R. Here is the method:
as §1, §2

For assay [3], the target named is T3, hMC-4R (Homo sapiens, UniProt P32245).
T3 construct: expressed in transfected cells; host or cells: Chinese hamster ovary (CHO) cells
T3 sequence (P32245 whole entry): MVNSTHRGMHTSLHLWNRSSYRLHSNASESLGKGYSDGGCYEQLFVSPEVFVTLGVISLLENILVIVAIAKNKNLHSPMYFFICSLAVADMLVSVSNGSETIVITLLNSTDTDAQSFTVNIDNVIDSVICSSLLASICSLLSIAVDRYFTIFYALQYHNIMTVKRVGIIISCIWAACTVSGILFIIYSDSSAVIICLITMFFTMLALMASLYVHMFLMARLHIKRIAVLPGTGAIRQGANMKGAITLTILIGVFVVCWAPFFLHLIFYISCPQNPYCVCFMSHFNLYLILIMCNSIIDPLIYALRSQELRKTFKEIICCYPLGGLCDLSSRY
The assay is described as above. The conditions noted are these: 200 pM [125I]-NDP-α-MSH, read-out: Binding Assay IC50 hMC-4R. Here is the method: as §1, §2

The target in assay [4] is T1, hMC-5R. The assay can be described thus: cAMP assay in CHO cells expressing a human melanocortin receptor. Format: cell-based. The conditions noted are these: for EC50: CHO cells, 45 minutes at room temperature; for CAMP Assay hMC-5R, % activation at a single concentration: @ 5 (concentration unit not given), relative to α-MSH defined as a 100% agonist. Here is the method:
(§3) Chinese hamster ovary cells expressing a human melanocortin receptor were rinsed with calcium- and magnesium-free PBS (Life Technologies), and detached from the tissue culture flasks by 5-minutes incubation with enzyme-free dissociation buffer (S-014-B, Specialty Media). Cells were collected by centrifugation and resuspended in Earle's balanced salt solution (Life Technologies) with addition of 10 mM 4-(2-hydroxyethyl)-1-piperazineethanesulfonic acid (Hepes) buffer, pH 7.5, 5 mM MgCl2, 1 mM glutamine, and 1 mg/ml bovine serum albumin to concentration of 1-5×10^6 cells/ml. Subsequently, cells were counted and the cell suspension was treated with the phosphodiesterase inhibitor 3-isobutyl-1-methylxanthine (to concentration of 0.6 mM).
(§4) A test compound was dissolved in dimethyl sulfoxide (DMSO, 10^−3 to 10^−8 M), diluted with buffer, and 0.1 volume of the solution was added to 0.9 volumes of the cell suspension (1 to 5×10^5 cells); final concentration of DMSO was 1%. After 45 minutes at room temperature, cells were lysed by incubation at 100° C. for 5 minutes to release accumulated cAMP. Accumulation of cAMP was measured in an aliquot of the cell lysate with the Amersham (Arlington Heights, Ill.) cAMP detection assay kit (RPA556). The amount of cAMP produced in response to a tested compound was compared to the amount of cAMP produced in response to α-MSH, defined as a 100% agonist. All active peptides were characterized in three independent experiments.
(In general: cAMP levels reflect the balance of adenylyl cyclase and phosphodiesterase activity.)

Assay [5] has as its target T2, hMC-3R. The assay is described as above. In kind it is cell-based. The settings on record: 45 minutes at room temperature. Here is the method: as §3, §4
Assay [6] concerns the target T3, hMC-4R. The assay is described as above. Format: cell-based. The conditions noted are these: 45 minutes at room temperature. Here is the method: as §3, §4
The conditions of assay [7]: rats, cited from earlier work; for Food intake: intraventricular administration / injection.

Entries after “also recorded” stand apart in the source; their conditions may differ. Starred links: 1 amine or outer side, 2 acyl side, 3 side chain; linkers in the order of their positions; H or OH if unused. Positions of bridges follow the written chain, without caps; N, C: chain ends. Non-standard residues stand in square brackets, D forms with d. Residues, ends and D or L forms follow the SMILES beside them. ξ: configuration not given here. dPhe(4-Cl) = N[C@H](Cc1ccc(Cl)cc1)C(=O)O; 2Nal = N[C@@H](Cc1ccc2ccccc2c1)C(=O)O; Suc = O=C(CCC(=O)[*:2])[*:1]; ξE = NC(CCC(=O)O)C(=O)O; ξDab = NCCC(N)C(=O)O; ξK = NCCCCC(N)C(=O)O; ξDap = NCC(N)C(=O)O; Ava = NCCCCC(=O)O; GABA = NCCCC(=O)O; βAla = NCCC(=O)O Some results are limits rather than exact numbers.

T1 sequence (P33032 whole entry): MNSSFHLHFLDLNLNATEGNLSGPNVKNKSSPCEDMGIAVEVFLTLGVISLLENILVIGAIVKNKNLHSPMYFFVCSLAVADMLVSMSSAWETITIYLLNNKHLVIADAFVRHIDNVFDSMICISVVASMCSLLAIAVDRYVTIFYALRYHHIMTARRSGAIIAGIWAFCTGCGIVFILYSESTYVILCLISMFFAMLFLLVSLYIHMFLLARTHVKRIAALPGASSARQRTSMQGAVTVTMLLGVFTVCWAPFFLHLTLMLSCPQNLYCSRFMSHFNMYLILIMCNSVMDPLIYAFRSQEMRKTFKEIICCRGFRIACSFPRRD

Regarding `N=C(N)NCCC[C@@H]1NC(=O)[C@@H](Cc2ccccc2)NC(=O)[C@H](Cc2c[nH]cn2)NC(=O)CCC(=O)NCCCCC(C(N)=O)NC(=O)[C@H](Cc2c[nH]c3ccccc23)NC1=O` (some centres unmarked) [Example 1] (H[dF]RW[ξK]-NH2; linker N-5 via Suc), the values for the IC50 in assay [1], in assay [2] and in assay [3] were 3100 nM, 418 nM and 25 nM, respectively. The EC50 – broadly, the midpoint of the concentration-response curve – in assay [4] amounted to 1180 nM; in assay [5] it was 110 nM; in assay [6] it was 3.3 nM.

Turning to `N=C(N)NCCC[C@@H]1NC(=O)[C@@H](Cc2ccccc2)NC(=O)[C@H](Cc2c[nH]cn2)NC(=O)CCC(=O)NCCC(C(N)=O)NC(=O)[C@H](Cc2c[nH]c3ccccc23)NC1=O` (some centres unmarked) [Example 2] (H[dF]RW[ξDab]-NH2; linker N-5 via Suc), the IC50 – broadly, the concentration that inhibits the measured activity by half – stood at 7200 nM in assay [1], 1800 nM in assay [2] and 35 nM in assay [3]. Besides, the EC50 in assay [4] amounted to 2200 nM; in assay [5], 240 nM; in assay [6], 2.9 nM.

For the molecule `N=C(N)NCCC[C@@H]1NC(=O)[C@@H](Cc2ccccc2)NC(=O)[C@H](Cc2c[nH]cn2)NC(=O)CCC(=O)NCC(C(N)=O)NC(=O)[C@H](Cc2c[nH]c3ccccc23)NC1=O` (some centres unmarked) [Example 3] (H[dF]RW[ξDap]-NH2; linker N-5 via Suc), the results for the IC50 in assay [1], in assay [2] and in assay [3] were 3600 nM, 1600 nM and 71 nM, respectively. In addition, in assay [4], the “CAMP Assay hMC-5R, % activation at a single concentration” value was 12% @ 5. Also, the EC50 worked out at 590 nM in assay [5] and 33 nM in assay [6].

As for `N=C(N)NCCC[C@@H]1NC(=O)[C@@H](Cc2ccc(Cl)cc2)NC(=O)[C@H](Cc2c[nH]cn2)NC(=O)CCC(=O)NCCCCC(C(N)=O)NC(=O)[C@H](Cc2c[nH]c3ccccc23)NC1=O` (some centres unmarked) [Example 4] (H[dPhe(4-Cl)]RW[ξK]-NH2; linker N-5 via Suc), the IC50 in assay [1] turned out to be 92 nM; in assay [2], 17 nM; in assay [3] it was 1.7 nM. The results for the EC50 in assay [4], in assay [5] and in assay [6] were 170 nM, 40 nM and 0.74 nM, respectively.

`N=C(N)NCCC[C@@H]1NC(=O)[C@@H](Cc2ccccc2)NC(=O)[C@H](Cc2c[nH]cn2)NC(=O)CCC(=O)NCCCCC(C(N)=O)NC(=O)[C@H](Cc2ccc3ccccc3c2)NC1=O` (some centres unmarked) [Example 5] (H[dF]R[2Nal][ξK]-NH2; linker N-5 via Suc): the concentration for half-maximal inhibition (IC50) in assay [1] was > 20000 nM; in assay [2], 440 nM; in assay [3], 13 nM. Besides, the EC50 in assay [4] was > 5000 nM; in assay [5], 360 nM; in assay [6], 3.7 nM.

As to `N=C(N)NCCC[C@@H]1NC(=O)[C@@H](Cc2ccccc2)NC(=O)[C@H](Cc2c[nH]cn2)NC(=O)CCCCNC(=O)CCC(C(N)=O)NC(=O)[C@H](Cc2c[nH]c3ccccc23)NC1=O` (some centres unmarked) [Example 6] ([Ava]H[dF]RW[ξE]-NH2; lactam N-6), the IC50 was 9000 nM in assay [1], 580 nM in assay [2] and 12 nM in assay [3]. Further, the EC50 was determined as 1900 nM in assay [4], 190 nM in assay [5] and 2.7 nM in assay [6].

Consider `N=C(N)NCCC[C@@H]1NC(=O)[C@@H](Cc2ccccc2)NC(=O)[C@H](Cc2c[nH]cn2)NC(=O)CCCNC(=O)CCC(C(N)=O)NC(=O)[C@H](Cc2c[nH]c3ccccc23)NC1=O` (some centres unmarked) [Example 7] ([GABA]H[dF]RW[ξE]-NH2; lactam N-6), for which the IC50 in assay [1] is > 5000 nM; in assay [2], 1830 nM; in assay [3], 41 nM. Moreover, the EC50 was > 5000 nM in assay [4], 310 nM in assay [5] and 5.7 nM in assay [6].

`N=C(N)NCCC[C@@H]1NC(=O)[C@@H](Cc2ccccc2)NC(=O)[C@H](Cc2c[nH]cn2)NC(=O)CCNC(=O)CCC(C(N)=O)NC(=O)[C@H](Cc2c[nH]c3ccccc23)NC1=O` (some centres unmarked) [Example 8] ([βAla]H[dF]RW[ξE]-NH2; lactam N-6): the IC50 in assay [1] came out at 5050 nM; in assay [2], 450 nM.

Take `N=C(N)NCCC[C@@H]1NC(=O)[C@@H](Cc2ccccc2)NC(=O)[C@H](Cc2c[nH]cn2)NC(=O)CNC(=O)CCC(C(N)=O)NC(=O)[C@H](Cc2c[nH]c3ccccc23)NC1=O` (some centres unmarked) [Example 9] (GH[dF]RW[ξE]-NH2; lactam N-6): the IC50 in assay [1] is > 1000 nM; in assay [2], > 1000 nM; in assay [3] it was 290 nM. In addition, the “CAMP Assay hMC-5R, % activation at a single concentration” value in assay [4] came out at 15% @ 5. The figures for the EC50 in assay [5] and in assay [6] were 2200 nM and 35 nM, respectively.

For the molecule MTII, the Food intake result in assay [7] is reported as “reduced food intake”.

SHU9119: the Food intake result in assay [7] was “increased food intake; also recorded: stimulates food intake”. In assay [7] (intraventricular administration), the Body weight result is “increased food intake and body weight”.

The record behind these values is patent US6960646B2, “Cyclic peptides as potent and selective melanocortin-4 receptors agonists” (Merck & Co., Inc., priority 2001, dated 2005).
